Assay results published in PubChem BioAssay (NCI).
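Briefly, cells in 96-well plates were exposed to five compound concentrations for 48 h, and endpoints were estimated by linear interpolation. The concentration for full growth arrest is given as TGI.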 Where a SMILES comes first, the peptide text is derived from it. The star is where a group is joined. Boc = CC(C)(C)OC(=O)*

What was measured:
Assay in all cases: growth of human tumour cells (NCI), 48 h
OVCAR-5 ovarian = test system: OVCAR-5 ovarian
MDA-MB-231 breast = test system: MDA-MB-231 breast
NCI/ADR-RES ovarian = test system: NCI/ADR-RES ovarian
SW-620 colon = test system: SW-620 colon
SF-268 CNS = test system: SF-268 CNS
SF-295 CNS = test system: SF-295 CNS
HCT-15 colon = test system: HCT-15 colon
HCC-2998 colon = test system: HCC-2998 colon
SN12C renal = test system: SN12C renal
BT-549 breast = test system: BT-549 breast

| SMILES | TGI (OVCAR-5 ovarian) [µM] | TGI (MDA-MB-231 breast) [µM] | TGI (NCI/ADR-RES ovarian) [µM] | TGI (SW-620 colon) [µM] | TGI (SF-268 CNS) [µM] | TGI (SF-295 CNS) [µM] | TGI (HCT-15 colon) [µM] | TGI (HCC-2998 colon) [µM] | TGI (SN12C renal) [µM] | TGI (BT-549 breast) [µM] |
| --- | --- | --- | --- | --- | --- | --- | --- | --- | --- | --- |
| O=C(/C=C/c1ccc(O)cc1)c1ccc2c(c1)OCO2 | 93 | 37.4 | 67.9 | 42.9 | 58.5 | 55.5 | 83.8 | 40.5 | 30.7 |  |
| Cc1c(Cl)nc(Nc2nc3ccccc3[nH]2)nc1Cl | > 100 |  | > 100 | > 100 | > 100 | > 100 | > 100 |  | > 100 | > 100 |
| CCCN1C(=O)CC(C)N(Cc2ccccc2Cl)C1=S (configuration not stated) | > 100 | 97 | 53.1 | > 100 | 86.5 | > 100 | > 100 |  | 94.8 | 57.5 |
| Cc1ccsc1/C=N/Nc1nc2ccccc2s1 | > 100 | 27.5 | 77.4 | 94.9 | 66.7 | 23.8 | > 100 | > 100 | 41.3 | > 100 |
| COC(=O)/C(=C\Nc1cccc(C)n1)S(=O)(=O)c1ccc(C)cc1 | > 100 | > 100 | > 100 | > 100 | > 100 | > 100 | > 100 | > 100 | > 100 |  |
| CCCCC(C#N)(OP1(=O)OC(c2ccccc2)C(C)N1C)c1ccccc1 (configuration not stated) | 32.2 | 30.2 | 52 | 34.3 | 35.9 | 32.3 | 54.8 | 28.9 | 31.3 | 43.6 |
| CC(O)c1cc2c(s1)C(=O)c1sccc1C2=O (configuration not stated) | 0.368 |  | 0.59 |  | 0.61 | 0.191 | 0.178 | 0.402 | 0.192 | 0.175 |
| CCOC(=O)c1cc(-c2cc(OC)c(OC)c([N+](=O)[O-])c2)c([N+](=O)[O-])n1C | > 10 |  | > 10 |  | > 10 | > 10 | > 10 | > 10 | > 10 | > 10 |
| C[C@]12CCC(=O)C=C1CC[C@@H]1[C@@H]2[C@@H](O)C[C@@]2(C)[C@H]1CC[C@]2(O)C(=O)COC(=O)COCC(=O)O | > 100 |  |  | > 100 | > 100 | > 100 | > 100 | > 100 | > 100 |  |
| CN(C)c1ccc(C(=C(c2ccc(N(C)C)cc2)c2ccc(N(C)C)cc2)c2ccc(N(C)C)cc2)cc1 | > 100 |  |  | 20.8 | 56.4 | 27.8 | 32.7 | 35.3 | 35.2 |  |
| COC(=O)C(Cc1c[nH]c2ccccc12)NC(=O)C(Cc1c[nH]c2ccccc12)NC(=O)C(Cc1c[nH]c2ccccc12)NC(=O)C(Cc1c[nH]c2ccccc12)NC(=O)C(Cc1c[nH]c2ccccc12)NC(=O)C(Cc1c[nH]c2ccccc12)NC(=O)OC(C)(C)C (configuration not stated) (Boc-WWWWWW-OMe; configuration not given here) | > 100 | > 100 |  | > 100 | > 100 |  | > 100 | > 100 | > 100 | > 100 |
| COc1cc2c(cc1OC)C(C(CO)CO)N(CC(O)CCl)CC2 (configuration not stated) | > 100 |  |  | > 100 | > 100 | > 100 | > 100 | > 100 |  |  |
| O=C(O)c1cc2ccccc2c(N=Nc2ccc(S(=O)(=O)Nc3nccs3)cc2)c1O | > 100 | > 100 | > 100 | > 100 | > 100 | > 100 | > 100 | > 100 | > 100 |  |
| O=C(/N=C/c1c(O)c2ccccc2oc1=O)Nc1ccccc1 | > 100 |  |  | > 100 | > 100 | > 100 | > 100 | > 100 | > 100 |  |
| O=S(=O)(c1ccccc1)n1c2ccc(Br)cc2c2nc3ccccc3nc21 | > 100 | > 100 | > 100 | > 100 | > 100 | > 100 | > 100 | > 100 | > 100 |  |
| O=C1CCC2(CC1CC(Sc1ccccc1)Sc1ccccc1)OCCO2 (configuration not stated) | > 100 | > 100 | > 100 | > 100 | > 100 | > 100 | > 100 | > 100 |  |  |
| COc1ccc(-c2cc(=O)c3cc4c(cc3[nH]2)OCO4)cc1OC |  |  |  | > 100 | > 100 | > 100 | > 100 | > 100 | > 100 |  |
| COC(=O)/C=C\n1c(C)cc(=O)[nH]c1=O | > 100 |  | > 100 | > 100 | > 100 | > 100 | > 100 | > 100 | > 100 | > 100 |
| N#CC1=C(N)n2c(s/c(=C\c3ccc(Cl)cc3)c2=O)=C(c2nc3ccccc3[nH]2)C1c1ccc(Cl)cc1 (configuration not stated) | 3.66 |  |  | 3.03 | 7.11 |  | 4.2 | 1.7 | 4.6 |  |
| CCCSc1ccc2[nH]c(N3C(=O)/C(=C/c4ccco4)N=C3c3ccccc3)cc2c1 | > 50 |  | > 50 | > 50 | > 50 |  | > 50 | > 50 | > 50 | > 50 |
| NC(N)=N/N=C/c1nc2n(c1[N+](=O)[O-])CCS2 | > 100 | > 100 | > 100 | > 100 | > 100 | 98.4 | > 100 |  | > 100 | > 100 |
| COC(=O)c1c(O)ccc2c1c1c(n2Cc2ccccc2Cl)C(=O)c2ccccc2C1=O | 39.4 | 32.3 | 39.3 |  | 29.4 | 31.6 | 31.8 | 29.9 | 23.2 | 29.2 |
| CC1=Nc2nc(Cl)cn2C(=O)C1(Cl)Cl | > 10 | > 10 | > 10 | > 10 | > 10 | > 10 | > 10 | > 10 | > 10 |  |
| CC(=O)OCCOCn1c2c(c(=S)[nH]c1=O)CCC2 | > 100 | > 100 |  | > 100 | > 100 | > 100 | > 100 | > 100 | > 100 | > 100 |
